Experimental data taken from patent US11919897B2, “Inhibitors of human immunodeficiency virus replication” (VIIV HEALTHCARE UK (No. 5) LIMITED, priority 2018, dated 2024).

Tests used:
[1] = system: recombinant NL4-3 virus (nef section replaced with Renilla luciferase gene) in MT-2 cells; assay: HIV cell culture assay (antiviral activity, luciferase readout in infected MT-2 cells); type: cell-based; conditions: Renilla, NL43
Procedure: HIV cell culture assay-MT-2 cells, 293T cells and the proviral DNA clone of NL4-3 virus were obtained from the NIH AIDS Research and Reference Reagent Program. MT-2 cells were propagated in RPMI 1640 media supplemented with 10% heat inactivated fetal bovine serum (FBS), 100 μg/ml penicillin G and up to 100 units/mL streptomycin. The 293T cells were propagated in DMEM media supplemented with 10% heat inactivated FBS, 100 μg/mL penicillin G and 100 μg/mL streptomycin. A recombinant NL4-3 proviral clone, in which a section of the nef gene was replaced with the Renilla luciferase gene, was used to make the reference virus used in these studies. The recombinant virus was prepared through transfection of the recombinant NL4-3 proviral clone into 293T cells using Transit-293 Transfection Reagent from Minis Bio LLC (Madison, WI). Supernatent was harvested after 2-3 days and the amount of virus present was titered in MT-2 cells using luciferase enzyme activity as a marker by measuring luciferase enzyme activity. Luciferase was quantitated using the EnduRen Live Cell Substrate from Promega (Madison, WI). Antiviral activities of compounds toward the recombinant virus were quantified by measuring luciferase activity in MT-2 cells infected for 4-5 days with the recombinant virus in the presence of serial dilutions of the compound.
The 50% effective concentration (EC50) was calculated by using the exponential form of the median effect equation where (Fa)=1/[1+(ED50/drug conc.)m] (Johnson V A, Byington R T. Infectivity Assay. In Techniques in HIV Research. ed. Aldovini A, Walker B D. 71-76. New York: Stockton Press. 1990).

[2] = Compound cytotoxicity, XTT-based colorimetric assay; type: cell-based; conditions: human; uninfected MT2 cells, day 4, XTT assay
Procedure: Compound cytotoxicity and the corresponding CC50 values were determined using the same protocol as described in the antiviral assay except that uninfected cells were used. Cytotoxicity was assessed on day 4 in uninfected MT2 cells by using an XTT (2,3-bis[2-Methoxy-4-nitro-5-sulfophenyl]-2H-tetrazolium-5-carboxyanilide inner salt)-based colorimetric assay (Sigma-Aldrich, St Louis, Mo.).

## Cn1nc(NS(C)(=O)=O)c2c(Cl)ccc(-n3c([C@H](Cc4cc(F)cc(F)c4)NC(=O)Cn4nc(C(F)F)c5c4C(F)(F)[C@@H]4C[C@H]54)nc4nc(OCCN5CCCCC5)ccc4c3=O)c21 (atropisomer, axis not shown; (P)) [Example 11, N—((S)-1-((3P)-3-(4-chloro-1-methyl-3-(methylsulfonamido)-1H-indazol-7-yl)-4-oxo-7-(2-(piperidin-1-yl)ethoxy)-3,4-dihydropyrido[2,3-d]pyrimidin-2-yl)-2-(3,5-difluorophenyl)ethyl)-2-((3bS,4aR)-3-(difluoromethyl)-5,5-difluoro-3b,4,4a,5-tetrahydro-1H-cyclopropa[3,4]cyclopenta[1,2-c]pyrazol-1-yl)acetamide]
[1]
  EC50: 0.49 nM
[2]
  CC50 at 4 days: > 1000 nM

## Cn1nc(NS(C)(=O)=O)c2c(Cl)ccc(-n3c([C@H](Cc4cc(F)cc(F)c4)NC(=O)Cn4nc(C(F)F)c5c4C(F)(F)[C@@H]4C[C@H]54)nc4nc(OCCN5CCS(=O)(=O)CC5)ccc4c3=O)c21 (atropisomer, axis not shown; (P)) [Example 7, N—((S)-1-((3P)-3-(4-chloro-1-methyl-3-(methylsulfonamido)-1H-indazol-7-yl)-7-(2-(1,1-dioxidothiomorpholino)ethoxy)-4-oxo-3,4-dihydropyrido[2,3-d]pyrimidin-2-yl)-2-(3,5-difluorophenyl)ethyl)-2-((3bS,4aR)-3-(difluoromethyl)-5,5-difluoro-3b,4,4a,5-tetrahydro-1H-cyclopropa[3,4]cyclopenta[1,2-c]pyrazol-1-yl)acetamide]
[1]
  EC50: 0.26 nM
[2]
  CC50 at 4 days: > 1000 nM

## C[C@@H](Oc1ccc2c(=O)n(-c3ccc(Cl)c4c(NS(C)(=O)=O)nn(C)c34)c([C@H](Cc3cc(F)cc(F)c3)NC(=O)Cn3nc(C(F)F)c4c3C(F)(F)[C@@H]3C[C@H]43)nc2n1)C1CCCC1 (atropisomer, axis not shown; (P)) [Example 16, N—((S)-1-((3P)-3-(4-chloro-1-methyl-3-(methylsulfonamido)-1H-indazol-7-yl)-7-((R)-1-cyclopentylethoxy)-4-oxo-3,4-dihydropyrido[2,3-d]pyrimidin-2-yl)-2-(3,5-difluorophenyl)ethyl)-2-((3bS,4aR)-3-(difluoromethyl)-5,5-difluoro-3b,4,4a,5-tetrahydro-1H-cyclopropa[3,4]cyclopenta[1,2-c]pyrazol-1-yl)acetamide]
[1]
  EC50: 0.22 nM
[2]
  CC50 at 4 days: > 500 nM

## Cn1nc(NS(C)(=O)=O)c2c(Cl)ccc(-n3c([C@H](Cc4cc(F)cc(F)c4)NC(=O)Cn4nc(C(F)F)c5c4C(F)(F)[C@@H]4C[C@H]54)nc4nc(OCCc5nccs5)ccc4c3=O)c21 (atropisomer, axis not shown; (P)) [Example 18, N—((S)-1-((3P)-3-(4-chloro-1-methyl-3-(methylsulfonamido)-1H-indazol-7-yl)-4-oxo-7-(2-(thiazol-2-yl)ethoxy)-3,4-dihydropyrido[2,3-d]pyrimidin-2-yl)-2-(3,5-difluorophenyl)ethyl)-2-((3bS,4aR)-3-(difluoromethyl)-5,5-difluoro-3b,4,4a,5-tetrahydro-1H-cyclopropa[3,4]cyclopenta[1,2-c]pyrazol-1-yl)acetamide]
[1]
  EC50: 0.038 nM
[2]
  CC50 at 4 days: > 500 nM

## Cn1nc(NS(C)(=O)=O)c2c(Cl)ccc(-n3c([C@H](Cc4cc(F)cc(F)c4)NC(=O)Cn4nc(C(F)F)c5c4C(F)(F)[C@@H]4C[C@H]54)nc4nc(OCc5ccccn5)ccc4c3=O)c21 (atropisomer, axis not shown; (P)) [Example 30, N—((S)-1-((3P)-3-(4-chloro-1-methyl-3-(methylsulfonamido)-1H-indazol-7-yl)-4-oxo-7-(pyridin-2-ylmethoxy)-3,4-dihydropyrido[2,3-d]pyrimidin-2-yl)-2-(3,5-difluorophenyl)ethyl)-2-((3bS,4aR)-3-(difluoromethyl)-5,5-difluoro-3b,4,4a,5-tetrahydro-1H-cyclopropa[3,4]cyclopenta[1,2-c]pyrazol-1-yl)acetamide]
[1]
  EC50: 0.043 nM
[2]
  CC50 at 4 days: > 100 nM

## Cn1nc(NS(C)(=O)=O)c2c(Cl)ccc(-n3c([C@H](Cc4cc(F)cc(F)c4)NC(=O)Cn4nc(C(F)F)c5c4C(F)(F)[C@@H]4C[C@H]54)nc4nc(OCC5CCCC5)ccc4c3=O)c21 (atropisomer, axis not shown; (P)) [Example 2, N—((S)-1-((3P)-3-(4-chloro-1-methyl-3-(methylsulfonamido)-1H-indazol-7-yl)-7-(cyclopentylmethoxy)-4-oxo-3,4-dihydropyrido[2,3-d]pyrimidin-2-yl)-2-(3,5-difluorophenyl)ethyl)-2-((3bS,4aR)-3-(difluoromethyl)-5,5-difluoro-3b,4,4a,5-tetrahydro-1H-cyclopropa[3,4]cyclopenta[1,2-c]pyrazol-1-yl)acetamide]
[1]
  EC50: 0.06 nM
[2]
  CC50 at 4 days: > 1000 nM

## CC(C)OCCOc1ccc2c(=O)n(-c3ccc(Cl)c4c(NS(C)(=O)=O)nn(C)c34)c([C@H](Cc3cc(F)cc(F)c3)NC(=O)Cn3nc(C(F)F)c4c3C(F)(F)[C@@H]3C[C@H]43)nc2n1 (atropisomer, axis not shown; (P)) [Example 4, N—((S)-1-((3P)-3-(4-chloro-1-methyl-3-(methylsulfonamido)-1H-indazol-7-yl)-7-(2-isopropoxyethoxy)-4-oxo-3,4-dihydropyrido[2,3-d]pyrimidin-2-yl)-2-(3,5-difluorophenyl)ethyl)-2-((3bS,4aR)-3-(difluoromethyl)-5,5-difluoro-3b,4,4a,5-tetrahydro-1H-cyclopropa[3,4]cyclopenta[1,2-c]pyrazol-1-yl)acetamide]
[1]
  EC50: < 0.05 nM
[2]
  CC50 at 4 days: > 1000 nM

## Cn1nc(NS(C)(=O)=O)c2c(Cl)ccc(-n3c([C@H](Cc4cc(F)cc(F)c4)NC(=O)Cn4nc(C(F)F)c5c4C(F)(F)[C@@H]4C[C@H]54)nc4nc(OCCCC(C)(C)C)ccc4c3=O)c21 (atropisomer, axis not shown; (P)) [Example 19]
[1]
  EC50: 0.11 nM

## Cn1nc(NS(C)(=O)=O)c2c(Cl)ccc(-n3c([C@H](Cc4cc(F)cc(F)c4)NC(=O)Cn4nc(C(F)F)c5c4C(F)(F)[C@@H]4C[C@H]54)nc4nc(OCCC(C)(C)C)ccc4c3=O)c21 (atropisomer, axis not shown; (P)) [Example 3, N—((S)-1-((3P)-3-(4-chloro-1-methyl-3-(methylsulfonamido)-1H-indazol-7-yl)-7-(3,3-dimethylbutoxy)-4-oxo-3,4-dihydropyrido[2,3-d]pyrimidin-2-yl)-2-(3,5-difluorophenyl)ethyl)-2-((3bS,4aR)-3-(difluoromethyl)-5,5-difluoro-3b,4,4a,5-tetrahydro-1H-cyclopropa[3,4]cyclopenta[1,2-c]pyrazol-1-yl)acetamide]
[1]
  EC50: 0.06 nM
[2]
  CC50 at 4 days: > 1000 nM

## CCCCOCCOc1ccc2c(=O)n(-c3ccc(Cl)c4c(NS(C)(=O)=O)nn(C)c34)c([C@H](Cc3cc(F)cc(F)c3)NC(=O)Cn3nc(C(F)F)c4c3C(F)(F)[C@@H]3C[C@H]43)nc2n1 (atropisomer, axis not shown; (P)) [Example 27, N—((S)-1-(7-(2-butoxyethoxy)-(3P)-3-(4-chloro-1-methyl-3-(methylsulfonamido)-1H-indazol-7-yl)-4-oxo-3,4-dihydropyrido[2,3-d]pyrimidin-2-yl)-2-(3,5-difluorophenyl)ethyl)-2-((3bS,4aR)-3-(difluoromethyl)-5,5-difluoro-3b,4,4a,5-tetrahydro-1H-cyclopropa[3,4]cyclopenta[1,2-c]pyrazol-1-yl)acetamide]
[1]
  EC50: 0.041 nM
[2]
  CC50 at 4 days: > 100 nM

## CCC(C)(C)CCOc1ccc2c(=O)n(-c3ccc(Cl)c4c(NS(C)(=O)=O)nn(C)c34)c([C@H](Cc3cc(F)cc(F)c3)NC(=O)Cn3nc(C(F)F)c4c3C(F)(F)[C@@H]3C[C@H]43)nc2n1 (atropisomer, axis not shown; (P)) [Example 13, N—((S)-1-((3P)-3-(4-chloro-1-methyl-3-(methylsulfonamido)-1H-indazol-7-yl)-7-((3,3-dimethylpentyl)oxy)-4-oxo-3,4-dihydropyrido[2,3-d]pyrimidin-2-yl)-2-(3,5-difluorophenyl)ethyl)-2-((3bS,4aR)-3-(difluoromethyl)-5,5-difluoro-3b,4,4a,5-tetrahydro-1H-cyclopropa[3,4]cyclopenta[1,2-c]pyrazol-1-yl)acetamide]
[1]
  EC50: 0.17 nM
